The text below walks through data of publication PMC7699860 (Molecules, 2020).

The test system of this test is Tel-23 (DNA telomeric G4) (DNA, G4) TAGGGTTAGGGTTAGGGTTAGGG
The test can be described thus: UV melting at 290 nm. Conditions: K+ (KCl 50 mM), NaCac 2.5 mM, pH 6.5, G4 0.472 µM.

`CCN1[C]N(Cc2c3ccccc3cc3ccccc23)C=C1.CCN1[C]N(Cc2c3ccccc3cc3ccccc23)C=C1.[Au+]`: under “CG4/CAu = 0.5, derived from two Tm (60 and 57)”, the ΔTm is -3 °C.
As for `CCN1[C]N(Cc2c3ccccc3cc3ccccc23)C=C1.CCN1[C]N(Cc2c3ccccc3cc3ccccc23)C=C1.[Ag+]`, where the note is “CG4/CAg = 1.4, derived from two Tm (60 and 60)”, the ΔTm is 0 °C.
